Experimental data: US20260256792A1, “TREATMENT OF CHRONIC SPONTANEOUS URTICARIA BY ADMINISTERING (R)-2-[3-[4-AMINO-3-(2-FLUORO-4-PHENOXY-PHENYL)PYRAZOLO[3,4-D]PYRIMIDIN-1-YL]PIPERIDINE-1-CARBONYL]-4-METHYL-4-[4-(OXETAN-3-YL)PIPERAZIN-1-YL]PENT-2-ENENITRILE” (priority 2023, published 2026)

Tested on: moderate-to-severe chronic spontaneous urticaria (CSU)
Experiment: Phase 2 CSU study: itch severity score over 7 days (ISS7)
Assay type: in vivo, human
Description: The study comprises a 12 week, randomized, double-blind, placebo-controlled, multi-center, dose-ranging efficacy and safety phase, followed by a 40 week open label extension (OLE) phase (see FIG. 1). The study consists of three phases and an optional OLE phase. […] Clinically, CSU is characterized by the spontaneous and recurrent appearance of pruritic hives. The proposed primary endpoints were the UAS7 at Week 12 in EU and EU reference countries and the ISS7 in the US. Regardless of where a participant was from, all assessments were the same. The UAS7 score is a composite score containing both the HSS7 and the ISS7. This allowed a global assessment of the two key components of urticaria: hives and itch. […] The UAS is a validated PRO measure. […] The daily UAS scores range from 0 to 6 point/day. […] Patients were to complete the UAS using the e-diary. […] The following secondary endpoints were to be analyzed using the same approach as for the primary endpoint: • Change from baseline in UAS7 at Week 4 • Change from baseline in UAS7 at Week 12 (for US and US reference countries) • Change from baseline in ISS7 at Week 12 (except US and US reference countries) • Change from baseline in HSS7 at Week 12

[1] = Week 4, 400 mg TID, Prior Omalizumab Use
[2] = Week 5, 400 mg BID, Omalizumab-Naïve
[3] = Week 5, 400 mg BID, Prior Omalizumab Use
[4] = Week 5, 400 mg QPM, Omalizumab-Naïve
[5] = Week 5, 400 mg QPM, Prior Omalizumab Use
[6] = Week 5, 400 mg TID, Omalizumab-Naïve
[7] = Week 5, 400 mg TID, Prior Omalizumab Use
[8] = Week 6, 400 mg BID, Omalizumab-Naïve
[9] = Week 6, 400 mg BID, Prior Omalizumab Use
[10] = Week 6, 400 mg QPM, Omalizumab-Naïve
[11] = Week 6, 400 mg QPM, Prior Omalizumab Use
[12] = Week 6, 400 mg TID, Omalizumab-Naïve
[13] = Week 6, 400 mg TID, Prior Omalizumab Use
[14] = Week 7, 400 mg BID, Omalizumab-Naïve
[15] = Week 7, 400 mg BID, Prior Omalizumab Use
[16] = Week 7, 400 mg QPM, Omalizumab-Naïve
[17] = Week 7, 400 mg QPM, Prior Omalizumab Use

CC(C)(C=C(C#N)C(=O)N1CCC[C@@H](n2nc(-c3ccc(Oc4ccccc4)cc3F)c3c(N)ncnc32)C1)N1CCN(C2COC2)CC1 [rilzabrutinib, (R)-2-[3-[4-amino-3-(2-fluoro-4-phenoxy-phenyl)pyrazolo[3,4-d]pyrimidin-1-yl]piperidine-1-carbonyl]-4-methyl-4-[4-(oxetan-3-yl)piperazin-1-yl]pent-2-enenitrile]
ISS7 Mean (SD) [1]: 6.17 (6.41)
ISS7 Median [1]: 5.42
ISS7 Percent change from baseline Mean (SD) [1]: −61.65 (32.63) %
ISS7 Percent change from baseline Median [1]: −62.50%
ISS7 Change from baseline Mean (SD) [2]: −6.55 (6.17)
ISS7 Change from baseline Median [2]: −6.42
ISS7 Mean (SD) [2]: 8.88 (6.81)
ISS7 Median [2]: 8.50
ISS7 Percent change from baseline Mean (SD) [2]: −43.73 (41.21) %
ISS7 Percent change from baseline Median [2]: −39.85%
ISS7 Change from baseline Median [3]: −14.50
ISS7 Mean (SD) [3]: 5.50 (8.54)
ISS7 Median [3]: 2.00
ISS7 Percent change from baseline Mean (SD) [3]: −68.33 (47.26) %
ISS7 Percent change from baseline Median [3]: −86.67%
ISS7 Change from baseline Mean (SD) [4]: −5.53 (4.98)
ISS7 Change from baseline Median [4]: −4.10
ISS7 Mean (SD) [4]: 11.00 (4.68)
ISS7 Percent change from baseline Mean (SD) [4]: −31.93 (26.18) %
ISS7 Percent change from baseline Median [4]: −30.00%
ISS7 Change from baseline Mean (SD) [5]: −10.00 (NC)
ISS7 Change from baseline Median [5]: −10.00
ISS7 Mean (SD) [5]: 11.00 (NC)
ISS7 Percent change from baseline Mean (SD) [5]: −47.62 (NC) %
ISS7 Percent change from baseline Median [5]: −47.62%
ISS7 Change from baseline Mean (SD) [6]: −9.18 (6.46)
ISS7 Change from baseline Median [6]: −9.00
ISS7 Mean (SD) [6]: 6.92 (5.87)
ISS7 Median [6]: 7.00
ISS7 Percent change from baseline Mean (SD) [6]: −55.68 (34.88) %
ISS7 Percent change from baseline Median [6]: −56.25%
ISS7 Mean (SD) [7]: 5.50 (6.53)
ISS7 Median [7]: 3.00
ISS7 Percent change from baseline Mean (SD) [7]: −66.60 (31.51) %
ISS7 Percent change from baseline Median [7]: −72.43%
ISS7 Change from baseline Mean (SD) [8]: −6.58 (5.90)
ISS7 Change from baseline Median [8]: −5.75
ISS7 Mean (SD) [8]: 8.85 (6.40)
ISS7 Percent change from baseline Mean (SD) [8]: −42.90 (39.02) %
ISS7 Percent change from baseline Median [8]: −33.40%
ISS7 Change from baseline Mean (SD) [9]: −10.13 (9.42)
ISS7 Change from baseline Median [9]: −14.00
ISS7 Mean (SD) [9]: 7.07 (8.32)
ISS7 Median [9]: 2.33
ISS7 Percent change from baseline Mean (SD) [9]: −56.44 (51.68) %
ISS7 Change from baseline Mean (SD) [10]: −6.59 (5.45)
ISS7 Change from baseline Median [10]: −5.00
ISS7 Mean (SD) [10]: 10.27 (5.26)
ISS7 Percent change from baseline Mean (SD) [10]: −38.20 (29.52) %
ISS7 Percent change from baseline Median [10]: −31.67%
ISS7 Change from baseline Mean (SD) [11]: −12.00 (NC)
ISS7 Change from baseline Median [11]: −12.00
ISS7 Mean (SD) [11]: 9.00 (NC)
ISS7 Median [11]: 9.00
ISS7 Percent change from baseline Mean (SD) [11]: −57.14 (NC) %
ISS7 Percent change from baseline Median [11]: −57.14%
ISS7 Change from baseline Mean (SD) [12]: −8.71 (6.32)
ISS7 Change from baseline Median [12]: −7.50
ISS7 Mean (SD) [12]: 7.32 (6.05)
ISS7 Median [12]: 7.00
ISS7 Percent change from baseline Mean (SD) [12]: −53.59 (35.59) %
ISS7 Percent change from baseline Median [12]: −50.00%
ISS7 Change from baseline Mean (SD) [13]: −12.83 (7.49)
ISS7 Change from baseline Median [13]: −14.50
ISS7 Mean (SD) [13]: 4.17 (6.88)
ISS7 Median [13]: 2.00
ISS7 Percent change from baseline Mean (SD) [13]: −75.50 (33.00) %
ISS7 Percent change from baseline Median [13]: −88.10%
ISS7 Change from baseline Mean (SD) [14]: −7.28 (5.95)
ISS7 Change from baseline Median [14]: −8.08
ISS7 Mean (SD) [14]: 8.21 (6.16)
ISS7 Median [14]: 7.00
ISS7 Percent change from baseline Mean (SD) [14]: −46.93 (37.51) %
ISS7 Percent change from baseline Median [14]: −56.35%
ISS7 Change from baseline Mean (SD) [15]: −10.40 (9.91)
ISS7 Change from baseline Median [15]: −13.00
ISS7 Mean (SD) [15]: 6.80 (8.56)
ISS7 Median [15]: 2.00
ISS7 Percent change from baseline Mean (SD) [15]: −57.33 (52.62) %
ISS7 Percent change from baseline Median [15]: −86.67%
ISS7 Change from baseline Mean (SD) [16]: −6.11 (5.15)
ISS7 Change from baseline Median [16]: −5.20
ISS7 Mean (SD) [16]: 10.68 (5.34)
ISS7 Percent change from baseline Mean (SD) [16]: −36.22 (29.09) %
ISS7 Percent change from baseline Median [16]: −37.78%
ISS7 Change from baseline Mean (SD) [17]: −13.00 (NC)
ISS7 Change from baseline Median [17]: −13.00
ISS7 Mean (SD) [17]: 8.00 (NC)
ISS7 Median [17]: 8.00
ISS7 Percent change from baseline Mean (SD) [17]: −61.90 (NC) %
ISS7 Percent change from baseline Median [17]: −61.90%
